Data published in patent US11026944B2, “Compositions and methods for treating insomnia” (Eisai R&D Management Co., Ltd., priority 2014, dated 2021).
Like-named read-outs stand apart in the source and are kept apart here.

Columns and labels:
Format in all cases: in vivo, human
[1] = Crossover study of relative bioavailability of tablet versus capsule (005 Study): plasma PK; conditions: for Tmax / concentration at 8 h / AUC(0-t) / AUC(0-inf) / Cmax / half-life: human, plasma; for concentration at 8 h: plasma at 8 h, read-out: C8 Mean(SD); for AUC(0-inf): read-out: AUC(0-inf) Mean(SD); for Cmax: read-out: Cmax Mean(SD); for half-life: read-out: t1/2 Mean(SD) (converted)
Method: Single-center, open-label, randomized crossover study was conducted to evaluate, in healthy adult subjects, the bioavailability of single solid oral doses of compound A in tablet formulation relative to single oral doses of compound A in capsule formulation at 2.5, 10, and 25 mg. Another objective of the study was to evaluate the safety and tolerability of tablet formulations of compound A at 2.5, 10, and 25 mg in healthy adult subjects. Approximately 36 subjects were randomly assigned to one of three cohorts (approximately 12 subjects per cohort) and received both a single dose of compound A as a capsule formulation and a single dose of compound A as a tablet formulation, in random sequence, in a 1:1 ratio. The doses were 2.5 mg, 10 mg, and 25 mg.
The study had two phases: Prerandomization and Randomization. The Prerandomization Phase lasted for up to 21 days and included a Screening Period and Baseline Period A, during which eligibility was established and baseline assessments before dosing of the first formulation occurred. The Randomization Phase consisted of two Treatment Periods (A and B), separated by Baseline Period B. On the first day of Treatment Period A, subjects received a single oral dose of the first formulation. After the first formulation dose, pharmacokinetic (PK) and safety assessments were obtained throughout Treatment Period A, and subjects completed a 20-day washout. Before dosing of the second formulation, subjects completed Baseline Period B assessments. Subjects then proceeded to Treatment Period B and received a single oral dose of the second formulation. Pharmacokinetic and safety assessments were obtained throughout Treatment Period B.
Blood samples for the determination of plasma concentrations of compound A were collected at the following times: Treatment Period A (Day 1 to Day 15): before and after dosing at 0.5 (30 minutes), 1, 1.5, 2, 3, 4, 5, 6, 8, 12, 24, 48, 72, 120, 168, 240, and 336 hours; Treatment Period B (Day 22 to Day 36): before and after dosing at 0.5 (30 minutes), 1, 1.5, 2, 3, 4, 5, 6, 8, 12, 24, 48, 72, 120, 168, 240, and 336 hours.
Plasma concentrations of compound A were measured using a validated liquid chromatography-tandem mass spectrometry (LC-MS/MS) assay.
Noncompartmental methods were used to calculate the following plasma PK parameters for compound A: area under the plasma concentration-time curve from time zero to 8 hours after dosing (AUC(0-8)), area under the plasma concentration-time curve from time zero to 72 hours after dosing (AUC(0-72)), area under the plasma concentration-time curve from time zero to time of the last quantifiable concentration (AUC(0-t)), area under the plasma concentration-time curve from time zero extrapolated to time infinity (AUC(0-inf)), maximum observed plasma drug concentration (Cmax), terminal elimination half-life (t1/2), absorption lag time (tlag), and time to reach the maximum (peak) plasma concentration after drug administration (tmax). The primary PK parameters were AUC(0-inf) and Cmax. The individual PK parameters of compound A were presented in the data listings by formulation (tablet or capsule) and dose (2.5, 10, or 25 mg). The PK parameters except tmax and tlag were summarized by formulation and dose using descriptive statistics: number of subjects, mean, SD, coefficient of variation, geometric mean, median, minimum, and maximum. The parameters tmax and tlag were summarized by formulation and dose using the following descriptive statistics: median, minimum, maximum, and the 90% confidence interval (CI) of the median point estimate. The natural log (In)-transformed PK parameters for compound A (AUC(0-inf), Cmax, AUC(0-8), AUC(0-72), and AUC(0-t)) were compared separately by dose with a mixed-effects model with sequence, treatment period, and formulation as fixed effects and subjects nested within sequence as a random effect. […]

healthy adult subjects = assay: 002 Study: PK-PD exploratory analysis of next-day residual sleepiness; conditions: 9-10 hours postdose (1-2 hours after morning awakening), Day 2
Method: For the PK-PD exploratory analysis of next-day residual sleepiness, population PK model-derived compound A plasma concentrations at 8, 9, and 10 hours following administration on the evening of Day 1 were related to change from baseline on the KSS, PVT Lapses, and DSST at 15 minutes, 1 hour, and 2 hours after waketime on the morning of Day 2, respectively. […] Concentrations below 30 ng/mL (which occur at doses below 25 mg) after 9-10 hours postdose, which correspond to the 1-2 hours after morning awakening, were associated with minimal or no change from baseline on the KSS, PVT Lapses, or DSST.

[2] = 001 Study Part B: plasma PK of compound A; conditions: subjects with primary insomnia, single evening dose
Method: For subjects in Part B, blood samples for measurements of plasma concentrations of compound A were obtained by direct venipuncture on Day 1 predose and at 0.5, 9, 12, 24, 36, 60, 84, 108, 156, and 228 hours postdose.
Plasma concentrations of compound A were measured using a validated liquid chromatography-mass spectrometry/mass spectrometry (LC-MS/MS) assay.

[3] = across all dose levels (2.5, 10, 25 mg)
[4] = po, 2.5 mg, single oral 2.5 mg Capsule, healthy adults
[5] = po, 2.5 mg, single oral 2.5 mg Tablet, healthy adults
[6] = po, 10 mg, single oral 10 mg Capsule, healthy adults
[7] = po, 10 mg, single oral 10 mg Tablet, healthy adults
[8] = po, 25 mg, single oral 25 mg Capsule, healthy adults
[9] = po, 25 mg, single oral 25 mg Tablet, healthy adults

Cc1ncc(OC[C@@]2(c3cccc(F)c3)C[C@H]2C(=O)Nc2ccc(F)cn2)c(C)n1 [Compound A, (1R,2 S)-2-(((2,4-dimethylpyrimidin-5-yl)oxy)methyl)-2-(3-fluorophenyl)-N-(5-fluoropyridin-2-yl) cyclopropanecarboxamide]
Differences between formulations (tablet vs capsule) in AUC(0-8), AUC(0-72), AUC(0-t), AUC(0-inf) [1, 3]: less than 13%
Differences between tablet and capsule formulations in Cmax [1, 3]: less than 16%
absorption lag ([1]; either formulation, any dose level): no observed absorption lag
Tmax ([1]; oral, tablet and capsule, across all dose levels, read-out: median tmax): 1 to 1.5 h
concentration at 8 h ([1]; po, 2.5 mg, single oral 2.5 mg Capsule): 0.00184 µg/mL
concentration at 8 h ([1]; po, 2.5 mg, single oral 2.5 mg Tablet): 0.00175 µg/mL
AUC(0-t) ([1]; po, 2.5 mg, single oral 2.5 mg Capsule, healthy adults, read-out: AUC(0-8) Mean(SD)): 0.0455 µg·h/mL
AUC(0-t) ([1]; po, 2.5 mg, single oral 2.5 mg Capsule, healthy adults, read-out: AUC(0-72) Mean(SD)): 0.0851 µg·h/mL
AUC(0-inf) [1, 4]: 0.103 µg·h/mL
AUC(0-t) ([1]; po, 2.5 mg, single oral 2.5 mg Capsule, healthy adults, read-out: AUC(0-t) Mean(SD)): 0.0949 µg·h/mL
Cmax [1, 4]: 0.0159 µg/mL
half-life [1, 4]: 36.8 h
Tmax ([1]; po, 2.5 mg, single oral 2.5 mg Capsule, healthy adults, read-out: tmax (median)): 1 h
AUC(0-t) ([1]; po, 2.5 mg, single oral 2.5 mg Tablet, healthy adults, read-out: AUC(0-8) Mean(SD)): 0.0471 µg·h/mL
AUC(0-t) ([1]; po, 2.5 mg, single oral 2.5 mg Tablet, healthy adults, read-out: AUC(0-72) Mean(SD)): 0.0843 µg·h/mL
AUC(0-inf) [1, 5]: 0.101 µg·h/mL
AUC(0-t) ([1]; po, 2.5 mg, single oral 2.5 mg Tablet, healthy adults, read-out: AUC(0-t) Mean(SD)): 0.0932 µg·h/mL
Cmax [1, 5]: 0.018 µg/mL
half-life [1, 5]: 35.1 h
Tmax ([1]; po, 2.5 mg, single oral 2.5 mg Tablet, healthy adults, read-out: tmax (median)): 1 h
concentration at 8 h ([1]; po, 10 mg, single oral 10 mg Capsule): 0.0089 µg/mL
concentration at 8 h ([1]; po, 10 mg, single oral 10 mg Tablet): 0.00744 µg/mL
AUC(0-t) ([1]; po, 10 mg, single oral 10 mg Capsule, healthy adults, read-out: AUC(0-8) Mean(SD)): 0.164 µg·h/mL
AUC(0-t) ([1]; po, 10 mg, single oral 10 mg Capsule, healthy adults, read-out: AUC(0-72) Mean(SD)): 0.372 µg·h/mL
AUC(0-inf) [1, 6]: 0.531 µg·h/mL
AUC(0-t) ([1]; po, 10 mg, single oral 10 mg Capsule, healthy adults, read-out: AUC(0-t) Mean(SD)): 0.511 µg·h/mL
Cmax [1, 6]: 0.049 µg/mL
half-life [1, 6]: 57 h
Tmax ([1]; po, 10 mg, single oral 10 mg Capsule, healthy adults, read-out: tmax (median)): 1.5 h
AUC(0-t) ([1]; po, 10 mg, single oral 10 mg Tablet, healthy adults, read-out: AUC(0-8) Mean(SD)): 0.178 µg·h/mL
AUC(0-t) ([1]; po, 10 mg, single oral 10 mg Tablet, healthy adults, read-out: AUC(0-72) Mean(SD)): 0.341 µg·h/mL
AUC(0-inf) [1, 7]: 0.472 µg·h/mL
AUC(0-t) ([1]; po, 10 mg, single oral 10 mg Tablet, healthy adults, read-out: AUC(0-t) Mean(SD)): 0.455 µg·h/mL
Cmax [1, 7]: 0.0581 µg/mL
half-life [1, 7]: 59.5 h
Tmax ([1]; po, 10 mg, single oral 10 mg Tablet, healthy adults, read-out: tmax (median)): 1 h
concentration at 8 h ([1]; po, 25 mg, single oral 25 mg Capsule): 0.0199 µg/mL
concentration at 8 h ([1]; po, 25 mg, single oral 25 mg Tablet): 0.0176 µg/mL
AUC(0-t) ([1]; po, 25 mg, single oral 25 mg Capsule, healthy adults, read-out: AUC(0-8) Mean(SD)): 0.358 µg·h/mL
AUC(0-t) ([1]; po, 25 mg, single oral 25 mg Capsule, healthy adults, read-out: AUC(0-72) Mean(SD)): 0.803 µg·h/mL
AUC(0-inf) [1, 8]: 1.11 µg·h/mL
AUC(0-t) ([1]; po, 25 mg, single oral 25 mg Capsule, healthy adults, read-out: AUC(0-t) Mean(SD)): 1.08 µg·h/mL
Cmax [1, 8]: 0.105 µg/mL
half-life [1, 8]: 57.4 h
Tmax ([1]; po, 25 mg, single oral 25 mg Capsule, healthy adults, read-out: tmax (median)): 1.5 h
AUC(0-t) ([1]; po, 25 mg, single oral 25 mg Tablet, healthy adults, read-out: AUC(0-8) Mean(SD)): 0.386 µg·h/mL
AUC(0-t) ([1]; po, 25 mg, single oral 25 mg Tablet, healthy adults, read-out: AUC(0-72) Mean(SD)): 0.795 µg·h/mL
AUC(0-inf) [1, 9]: 1.1 µg·h/mL
AUC(0-t) ([1]; po, 25 mg, single oral 25 mg Tablet, healthy adults, read-out: AUC(0-t) Mean(SD)): 1.07 µg·h/mL
Cmax [1, 9]: 0.12 µg/mL
half-life [1, 9]: 57.6 h
Tmax ([1]; po, 25 mg, single oral 25 mg Tablet, healthy adults, read-out: tmax (median)): 1 h
plasma concentration associated with minimal or no change from baseline on KSS, PVT Lapses, DSST (healthy adult subjects): below 30 ng/mL
concentration-time profiles in Part B compared with Part A [2]: approximately similar to their corresponding dose groups in Part A
